Measurements: the supplement of paper PMC10307832

Assays:
Test in all cases: relative viability (nuclei count vs DMSO), 5 days (fraction); higher = more cells survive
[1] = compound: CC(=O)Nc1cccc(-n2c(=O)n(C3CC3)c(=O)c3c(Nc4ccc(I)cc4F)n(C)c(=O)c(C)c32)c1 [Trametinib] + CS(=O)(=O)CCNCc1ccc(-c2ccc3ncnc(Nc4ccc(OCc5cccc(F)c5)c(Cl)c4)c3c2)o1 [Lapatinib] (partner 2 µM)
Method in brief: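 A single step with final 0.05% Triton X-100, 1% formaldehyde and 1 ug/ml Hoechst fixed the cells and stained nuclei 5 days after treatment. Lung cancer cell lines in 1536-well plates had been treated by pin tool the day after seeding with one drug alone or a fixed anchor-drug dose plus five library-drug doses (not always all listed) in √10 steps, and nuclei were counted on 4× images. Relative viability is the ratio of nuclei in treated wells to nuclei in vehicle wells, taken as the median of duplicate plates.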

[2] = compound: CN1C=C(C2=CC=CC=C21)/C=C\3/C4=C(C=CC=N4)NC3=O
Method in brief: (§1)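 Viability was defined as treated-well nuclei divided by vehicle-well nuclei, with the median taken over replicate plates. Cells from lung cancer lines sat overnight at 37 °C in 1536-well plates, received five √10-spaced library-drug doses by pinning on vehicle-anchored plates, and grew 5 days without medium change before one-step fixation, permeabilisation and Hoechst staining, 4× imaging and MetaXpress nuclear counts. Only plates with control CV under 25% and at least one doubling were kept.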

[3] = compound: CC(=O)Nc1cccc(-n2c(=O)n(C3CC3)c(=O)c3c(Nc4ccc(I)cc4F)n(C)c(=O)c(C)c32)c1 [Trametinib]
Method in brief: as §1

Cell Line: NCI-H2085
- relative viability ([1]; first compound 0.0025 µM): 0.783
- relative viability ([1]; first compound 0.007906 µM): 0.707
- relative viability ([1]; first compound 0.025 µM): 0.426
- relative viability ([1]; first compound 0.07906 µM): 0.668
- relative viability ([1]; first compound 0.25 µM): 0.549
- relative viability ([2]; 0.02 µM): 1.01
- relative viability ([2]; 0.06325 µM): 0.943
- relative viability ([2]; 0.2 µM): 0.942
- relative viability ([2]; 0.6325 µM): 1.03
- relative viability ([2]; 2 µM): 0.993
- relative viability ([3]; 0.0025 µM): 0.913
- relative viability ([3]; 0.007906 µM): 0.823
- relative viability ([3]; 0.02 µM, anchor plate): 0.504
- relative viability ([3]; 0.025 µM): 0.754
- relative viability ([3]; 0.07906 µM): 0.783
- relative viability ([3]; 0.25 µM): 0.729

Cell Line: NCI-H3122
- relative viability ([1]; first compound 0.0025 µM): 0.995
- relative viability ([1]; first compound 0.007906 µM): 0.737
- relative viability ([1]; first compound 0.025 µM): 0.699
- relative viability ([1]; first compound 0.07906 µM): 0.584
- relative viability ([1]; first compound 0.25 µM): 0.501
- relative viability ([2]; 0.02 µM): 0.878
- relative viability ([2]; 0.06325 µM): 0.938
- relative viability ([2]; 0.2 µM): 0.897
- relative viability ([2]; 0.6325 µM): 1.05
- relative viability ([2]; 2 µM): 0.994
- relative viability ([3]; 0.0025 µM): 0.909
- relative viability ([3]; 0.007906 µM): 0.701
- relative viability ([3]; 0.02 µM, anchor plate): 0.231
- relative viability ([3]; 0.025 µM): 0.465
- relative viability ([3]; 0.07906 µM): 0.361
- relative viability ([3]; 0.25 µM): 0.281

Cell Line: HCC-827
- relative viability ([1]; first compound 0.0025 µM): 0.191
- relative viability ([1]; first compound 0.007906 µM): 0.164
- relative viability ([1]; first compound 0.025 µM): 0.178
- relative viability ([1]; first compound 0.07906 µM): 0.208
- relative viability ([1]; first compound 0.25 µM): 0.228
- relative viability ([2]; 0.02 µM): 0.94
- relative viability ([2]; 0.06325 µM): 0.978
- relative viability ([2]; 0.6325 µM): 1.11
- relative viability ([2]; 2 µM): 1.06
- relative viability ([3]; 0.0025 µM): 0.999
- relative viability ([3]; 0.007906 µM): 0.958
- relative viability ([3]; 0.02 µM, anchor plate): 0.508
- relative viability ([3]; 0.025 µM): 0.92
- relative viability ([3]; 0.07906 µM): 0.738
- relative viability ([3]; 0.25 µM): 0.609

Cell Line: HARA
- relative viability ([1]; first compound 0.0025 µM): 0.585
- relative viability ([1]; first compound 0.007906 µM): 0.583
- relative viability ([1]; first compound 0.025 µM): 0.541
- relative viability ([1]; first compound 0.07906 µM): 0.513
- relative viability ([1]; first compound 0.25 µM): 0.509
- relative viability ([2]; 0.02 µM): 0.935
- relative viability ([2]; 0.06325 µM): 0.972
- relative viability ([2]; 0.2 µM): 0.657
- relative viability ([2]; 0.6325 µM): 0.96
- relative viability ([2]; 2 µM): 0.928
- relative viability ([3]; 0.0025 µM): 0.861
- relative viability ([3]; 0.007906 µM): 0.947
- relative viability ([3]; 0.02 µM, anchor plate): 0.674
- relative viability ([3]; 0.025 µM): 0.86
- relative viability ([3]; 0.07906 µM): 0.503
- relative viability ([3]; 0.25 µM): 0.375

Cell Line: SK-MES-1
- relative viability ([1]; first compound 0.0025 µM): 0.447
- relative viability ([1]; first compound 0.007906 µM): 0.39
- relative viability ([1]; first compound 0.025 µM): 0.352
- relative viability ([1]; first compound 0.07906 µM): 0.362
- relative viability ([1]; first compound 0.25 µM): 0.344
- relative viability ([2]; 0.02 µM): 0.967
- relative viability ([2]; 0.06325 µM): 0.959
- relative viability ([2]; 0.2 µM): 0.951
- relative viability ([2]; 0.6325 µM): 0.929
- relative viability ([2]; 2 µM): 0.967
- relative viability ([3]; 0.0025 µM): 0.948
- relative viability ([3]; 0.007906 µM): 0.803
- relative viability ([3]; 0.02 µM, anchor plate): 0.574
- relative viability ([3]; 0.025 µM): 0.621
- relative viability ([3]; 0.07906 µM): 0.485
- relative viability ([3]; 0.25 µM): 0.359

Cell Line: HCC-15
- relative viability ([1]; first compound 0.0025 µM): 0.806
- relative viability ([1]; first compound 0.007906 µM): 0.461
- relative viability ([1]; first compound 0.025 µM): 0.572
- relative viability ([1]; first compound 0.07906 µM): 0.328
- relative viability ([1]; first compound 0.25 µM): 0.223
- relative viability ([2]; 0.02 µM): 0.947
- relative viability ([2]; 0.06325 µM): 0.952
- relative viability ([2]; 0.2 µM): 1.03
- relative viability ([2]; 0.6325 µM): 1.01
- relative viability ([2]; 2 µM): 1.01
- relative viability ([3]; 0.0025 µM): 0.795
- relative viability ([3]; 0.007906 µM): 0.541
- relative viability ([3]; 0.02 µM, anchor plate): 0.389
- relative viability ([3]; 0.025 µM): 0.544
- relative viability ([3]; 0.07906 µM): 0.325
- relative viability ([3]; 0.25 µM): 0.28

Cell Line: ABC-1
- relative viability ([1]; first compound 0.0025 µM): 0.789
- relative viability ([1]; first compound 0.007906 µM): 1.16
- relative viability ([1]; first compound 0.025 µM): 1.18
- relative viability ([1]; first compound 0.07906 µM): 1.13
- relative viability ([1]; first compound 0.25 µM): 1.2
- relative viability ([2]; 0.02 µM): 0.829
- relative viability ([2]; 0.06325 µM): 0.896
- relative viability ([2]; 0.2 µM): 0.709
- relative viability ([2]; 0.6325 µM): 0.857
- relative viability ([2]; 2 µM): 0.764
- relative viability ([3]; 0.0025 µM): 0.963
- relative viability ([3]; 0.007906 µM): 0.908
- relative viability ([3]; 0.025 µM): 0.749
- relative viability ([3]; 0.07906 µM): 0.547
- relative viability ([3]; 0.25 µM): 0.333

Cell Line: EPLC-272H
- relative viability ([1]; first compound 0.0025 µM): 0.911
- relative viability ([1]; first compound 0.007906 µM): 0.56
- relative viability ([1]; first compound 0.025 µM): 0.493
- relative viability ([1]; first compound 0.07906 µM): 0.609
- relative viability ([1]; first compound 0.25 µM): 0.125
- relative viability ([2]; 0.02 µM): 0.921
- relative viability ([2]; 0.06325 µM): 0.828
- relative viability ([2]; 0.2 µM): 0.639
- relative viability ([2]; 0.6325 µM): 0.645
- relative viability ([2]; 2 µM): 0.869
- relative viability ([3]; 0.0025 µM): 0.844
- relative viability ([3]; 0.007906 µM): 0.644
- relative viability ([3]; 0.02 µM, anchor plate): 0.287
- relative viability ([3]; 0.025 µM): 0.503
- relative viability ([3]; 0.07906 µM): 0.327
- relative viability ([3]; 0.25 µM): 0.188

Cell Line: NCI-H2009
- relative viability ([1]; first compound 0.0025 µM): 0.841
- relative viability ([1]; first compound 0.007906 µM): 0.612
- relative viability ([1]; first compound 0.025 µM): 0.225
- relative viability ([1]; first compound 0.07906 µM): 0.343
- relative viability ([1]; first compound 0.25 µM): 0.236
- relative viability ([2]; 0.02 µM): 0.975
- relative viability ([2]; 0.06325 µM): 0.994
- relative viability ([2]; 0.2 µM): 1.02
- relative viability ([2]; 0.6325 µM): 1.05
- relative viability ([2]; 2 µM): 1.05
- relative viability ([3]; 0.0025 µM): 0.864
- relative viability ([3]; 0.007906 µM): 0.647
- relative viability ([3]; 0.02 µM, anchor plate): 0.297
- relative viability ([3]; 0.025 µM): 0.384
- relative viability ([3]; 0.07906 µM): 0.355
- relative viability ([3]; 0.25 µM): 0.331
